According to patent publication US20120082631A1, “COMPOSITIONS” (priority 2009, published 2012):

Assay: Sensory panel astringency ranking after brushing with toothpaste samples
Assay type: in vivo
Conditions: for astringency ratings compared to those of the standard toothpaste base and the current market product: flavour material at 1000 ppm in toothpaste base with 0.75% zinc citrate, statement in words; for Astringency Rating (0-10): mean rating by a panel of three trained experts, 0 = no astringency, 10 = strong astringency, ingredients at 1000 ppm (0.1% w/w) in Standard Toothpaste Base with 0.75% Zinc Citrate, 30 seconds brushing, spit out, one water rinse
Method: Differing flavour ingredients were added, at a concentration of 1000 ppm, to a non-flavoured toothpaste base containing 0.75% zinc citrate (ZCT).
Measured samples, of equal weight, of the non-flavoured toothpaste base containing 0.75% ZCT and the same toothpaste base modified with flavour ingredients were then placed on toothbrushes. The samples were tested by a panel of three independent trained experts. The panelists were instructed to brush their teeth for 30 seconds, spit out and rinse once with water. The subjects were then asked to rank the astringency on a scale of 0 to 10 for each sample, 0 representing no astringency and 10 representing strong astringency. A current market product was also tested in the same way.
Table 1 lists the flavour ingredients added to the non-flavoured toothpaste base containing 0.75% zinc citrate, along with the mean astringency rating of each sample. Also included in table 1 is the mean astringency rating of the non-flavoured toothpaste base containing 0.75% ZCT and the current market product.

With `Cc1occc(=O)c1O` [Maltol, 3-hydroxy-2-methyl-4H-pyran-4-one] the “astringency ratings compared to those of the standard toothpaste base and the current market product” value (“astringency ratings compared to those” for short) was “significantly lower astringency ratings” and the “Astringency Rating (0-10)” value was 3.8.

In the case of `CC1=C(O)C(=O)CC1` [Cyclotene, 2-hydroxy-3-methyl-2-cyclopenten-1-one], the “astringency ratings compared to those” value is reported as “significantly lower astringency ratings” and the “Astringency Rating (0-10)” value is reported as 4.5.

With `COc1cc(C=O)ccc1O` [Vanillin, reference compound] the “Astringency Rating (0-10)” value was 6.5.

With `CCc1occc(=O)c1O` [Ethyl Maltol, 2-ethyl-3-hydroxy-4H-pyran-4-one] the “astringency ratings compared to those” value was “significantly lower astringency ratings” and the “Astringency Rating (0-10)” value was 3.5.
